Where two headings read alike, the source gives them in different places. Numbered stars: 1 amine (or outer) side, 2 acyl side, 3 side chain; on linkers, the order of the positions; unused ones are H or OH. Bridge positions count the residues as written; N and C are the ends. Square brackets hold non-standard residues; d marks the D form. Peptide text beside a SMILES is read from it. NH(CH2)9CO = O=C(CCCCCCCCCN[*:1])[*:2]; NH(CH2)8CO = O=C(CCCCCCCCN[*:1])[*:2]; Aoc = NCCCCCCCC(=O)O
What was measured:
His-EGF(A)-Fc = His-EGF(A)-Fc TR-FRET counterscreen; details: TR-FRET counterscreen; Table 8D; * = some inhibition at highest concentrations, not sufficient to fit an IC50
PCSK9 = PCSK9 (Homo sapiens, UniProt Q8NBP7); test: PCSK9/EGF(A) TR-FRET binding assay; details: TR-FRET; Table 8D, disulfide-cyclized extension peptides; read-out: PCSK9/EGF(A) IC50
Method: The former was based on a TF-FRET assay to measure the association of the EGF(A) domain of the LDLR to PCSK9 (“PCSK9/EGF(A) binding assay”) whilst the latter was based on a TR-FRET assay to measure binding of Ab20 to PCSK9Δhelix (“PCSK9Δhelix/Ab20 binding assay”).
The ability of compounds to inhibit binding to PCSK9 was evaluated with a panel of time-resolved fluorescence resonance energy transfer (TR-FRET) binding assays. […] The PCSK9Δhelix/Ab20 binding assay evaluated the ability of compounds to compete with Ab20 for binding to the N-terminal groove region in a His-tagged, PCSK9Δhelix construct. […] Signal generation in the PCSK9 binding assays was dependent upon the binding interaction to bring into close proximity the His-tag on the PCSK9 and the Fc-tag on the ligand. Anti-His-APC was bound to the His-tag, and anti-Fc-europium was bound to the Fc-tag. When these two antibodies were in close proximity and were irradiated with light at 340 nm, the europium was excited and emitted energy at 615 nm. This energy was taken up by the APC and was emitted as light at 665 nm. Compounds that competed with the ligand reduced the energy transfer and thus the emission at 665 nm. In the His-EGFA-Fc molecule in the counterscreen, the two tags were always in close proximity, thus any reduction in emission at 665 nm was due to interference with the detection system.
Compounds were solubilized and dilutions were prepared in DMSO. […] The plate was centrifuged to mix the well contents and allowed to incubate for 30 min. […] The TR-FRET signal was read on a ViewLux reader (PerkinElmer) with excitation at 340 nm and emission at 615 and 665 nm with a 50-μs time delay between excitation and measurement of emission. The TR-FRET ratio was calculated as the fluorescence emission at 665 nm divided by the fluorescence emission at 615 nm. The normalized TR-FRET ratios were plotted as a function of the compound concentrations, and the IC50 values were determined using a 4-parameter logistic regression.
In black 1536-well assay plates (MaKO, Aurora® Microplates, Whitefish, Mont.), 40 nL of peptide in DMSO were preincubated with 2 μL His-tagged PCSK9 plus anti-His-allophycocyanin in assay buffer (50 mM Tris-HCl, pH 7.5, 150 mM NaCl, 2 mM CaCl2, 0.01% Tween®-20, 0.1% bovine gamma globulins, and protease inhibitor cocktail) for 30 min. Then 2 μL of Fc-tagged ligand and anti-Fc-europium in assay buffer were added and allowed to incubate for 2 h.

PCSK9Δhelix = target: T1, PCSK9Δhelix (Homo sapiens, UniProt Q8NBP7); test: PCSK9Δhelix/Ab20 TR-FRET binding assay; details: for IC50: TR-FRET, read-out: PCSK9Δhelix/Ab20 IC50
T1 construct: Human PCSK9 construct M1-Q692 with an engineered TEV site (residue deletion Y166, R167); made in house; host or cells: CHO

[1] = Table 8D, disulfide-cyclized extension peptides

T1 sequence (Q8NBP7 with tags, fused parts or gaps limits assumed): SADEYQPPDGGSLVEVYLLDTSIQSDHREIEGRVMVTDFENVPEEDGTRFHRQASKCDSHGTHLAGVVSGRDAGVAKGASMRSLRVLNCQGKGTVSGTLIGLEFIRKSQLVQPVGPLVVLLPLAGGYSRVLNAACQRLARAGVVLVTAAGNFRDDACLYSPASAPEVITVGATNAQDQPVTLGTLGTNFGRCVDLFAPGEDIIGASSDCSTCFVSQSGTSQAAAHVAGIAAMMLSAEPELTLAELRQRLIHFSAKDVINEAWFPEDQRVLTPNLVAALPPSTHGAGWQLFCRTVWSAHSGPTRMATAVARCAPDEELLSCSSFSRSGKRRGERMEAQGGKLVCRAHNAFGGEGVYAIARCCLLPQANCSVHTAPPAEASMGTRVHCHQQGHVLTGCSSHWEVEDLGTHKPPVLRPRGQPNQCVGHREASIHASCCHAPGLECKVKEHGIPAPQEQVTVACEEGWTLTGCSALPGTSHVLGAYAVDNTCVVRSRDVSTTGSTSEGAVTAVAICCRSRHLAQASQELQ
T1 sequence (Q8NBP7 31-152 partner limits assumed): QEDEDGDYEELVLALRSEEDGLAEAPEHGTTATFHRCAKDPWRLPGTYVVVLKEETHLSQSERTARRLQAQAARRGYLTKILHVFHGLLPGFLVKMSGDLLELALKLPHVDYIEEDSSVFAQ
PCSK9, sequence (Q8NBP7 153-692): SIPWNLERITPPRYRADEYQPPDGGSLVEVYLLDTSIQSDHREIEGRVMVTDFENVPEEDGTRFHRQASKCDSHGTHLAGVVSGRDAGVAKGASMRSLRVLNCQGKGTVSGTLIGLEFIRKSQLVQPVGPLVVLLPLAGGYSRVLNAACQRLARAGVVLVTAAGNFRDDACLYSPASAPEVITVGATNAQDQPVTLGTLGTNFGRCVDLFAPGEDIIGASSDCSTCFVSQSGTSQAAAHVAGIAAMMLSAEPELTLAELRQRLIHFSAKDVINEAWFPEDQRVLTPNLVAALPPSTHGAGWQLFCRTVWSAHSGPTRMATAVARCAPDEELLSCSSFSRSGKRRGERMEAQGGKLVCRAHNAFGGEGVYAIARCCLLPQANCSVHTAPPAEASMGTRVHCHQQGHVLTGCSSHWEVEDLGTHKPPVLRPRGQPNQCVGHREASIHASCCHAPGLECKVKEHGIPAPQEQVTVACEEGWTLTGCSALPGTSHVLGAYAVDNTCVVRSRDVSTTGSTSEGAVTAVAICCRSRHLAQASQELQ
PCSK9, sequence (Q8NBP7 31-152 partner limits assumed): as the sequence (Q8NBP7 31-152 partner limits assumed) above

SMILES | IC50 (His-EGF(A)-Fc) [µM] | IC50 (PCSK9) [µM] | IC50 (PCSK9Δhelix; Example 7) [µM] | IC50 (PCSK9Δhelix; [1]) [µM] | inhibition in the PCSK9Δhelix/Ab20 binding assay (PCSK9Δhelix)
CC[C@H](C)[C@@H]1NC(=O)[C@H](CCCNC(=N)N)NC(=O)[C@H](CCCCN)NC(=O)[C@H](CC(C)C)NC(=O)[C@H](CC(N)=O)NC(=O)[C@H](Cc2c[nH]c3ccccc23)NC(=O)[C@@H]2CCCN2C(=O)[C@H](CC(C)C)NC(=O)[C@H](CCCNC(=N)N)NC(=O)[C@@H](NC(C)=O)CSSC[C@@H](C(N)=O)NC(=O)[C@@H]2CCCN2C(=O)[C@H](CC(C)C)NC(=O)CNC1=O [Compound 67] (Ac-CRLPWNLKRIGLPC-NH2; disulfide 1-14) | > 50 | > 50 | 0.7 | 0.699 | –
CC[C@H](C)[C@@H]1NC(=O)[C@H](CCCNC(=N)N)NC(=O)[C@H](CCC(N)=O)NC(=O)[C@H](CC(C)C)NC(=O)[C@H](CC(N)=O)NC(=O)[C@H](Cc2c[nH]c3ccccc23)NC(=O)[C@@H]2CCCN2C(=O)[C@H](CC(C)C)NC(=O)[C@H](CCCNC(=N)N)NC(=O)[C@@H](NC(C)=O)CSSC[C@@H](C(N)=O)NC(=O)[C@H](C)NC(=O)[C@H](CC(C)C)NC(=O)CNC1=O [Compound 68] (Ac-CRLPWNLQRIGLAC-NH2; disulfide 1-14) | > 50 | > 50 | – | 0.939 | –
CC[C@H](C)[C@@H]1NC(=O)[C@H](CCCNC(=N)N)NC(=O)[C@H](CCC(N)=O)NC(=O)[C@H](CC(C)C)NC(=O)[C@H](CC(N)=O)NC(=O)[C@H](Cc2c[nH]c3ccccc23)NC(=O)[C@@H]2CCCN2C(=O)[C@H](CC(C)C)NC(=O)[C@H](CCCNC(=N)N)NC(=O)[C@@H](NC(C)=O)CSSC[C@@H](C(N)=O)NC(=O)[C@@H]2CCCN2C(=O)[C@H](C)NC(=O)CNC1=O [Compound 69] (Ac-CRLPWNLQRIGAPC-NH2; disulfide 1-14) | > 50 | > 50 | – | 6.64 | –
CC[C@H](C)[C@@H]1NC(=O)[C@H](CCCNC(=N)N)NC(=O)[C@H](CCC(N)=O)NC(=O)[C@H](CC(C)C)NC(=O)[C@H](CC(N)=O)NC(=O)[C@H](Cc2c[nH]c3ccccc23)NC(=O)[C@@H]2CCCN2C(=O)[C@H](CC(C)C)NC(=O)[C@H](CCCNC(=N)N)NC(=O)[C@@H](NC(C)=O)CSSC[C@@H](C(N)=O)NC(=O)[C@@H]2CCCN2C(=O)[C@H](CC(C)C)NC(=O)[C@H](C)NC1=O [Compound 70] (Ac-CRLPWNLQRIALPC-NH2; disulfide 1-14) | > 50 | > 50 | – | 7.26 | –
CC(=O)N[C@H]1CSSC[C@@H](C(N)=O)NC(=O)[C@@H]2CCCN2C(=O)[C@H](CC(C)C)NC(=O)CNC(=O)[C@H](C)NC(=O)[C@H](CCCNC(=N)N)NC(=O)[C@H](CCC(N)=O)NC(=O)[C@H](CC(C)C)NC(=O)[C@H](CC(N)=O)NC(=O)[C@H](Cc2c[nH]c3ccccc23)NC(=O)[C@@H]2CCCN2C(=O)[C@H](CC(C)C)NC(=O)[C@H](CCCNC(=N)N)NC1=O [Compound 71] (Ac-CRLPWNLQRAGLPC-NH2; disulfide 1-14) | > 50 | > 50 | – | 49.5 | –
CC[C@H](C)[C@@H]1NC(=O)[C@H](C)NC(=O)[C@H](CCC(N)=O)NC(=O)[C@H](CC(C)C)NC(=O)[C@H](CC(N)=O)NC(=O)[C@H](Cc2c[nH]c3ccccc23)NC(=O)[C@@H]2CCCN2C(=O)[C@H](CC(C)C)NC(=O)[C@H](CCCNC(=N)N)NC(=O)[C@@H](NC(C)=O)CSSC[C@@H](C(N)=O)NC(=O)[C@@H]2CCCN2C(=O)[C@H](CC(C)C)NC(=O)CNC1=O [Compound 72] (Ac-CRLPWNLQAIGLPC-NH2; disulfide 1-14) | > 50 | > 50 | – | 39.6 | –
CC[C@H](C)[C@@H]1NC(=O)[C@H](CCCNC(=N)N)NC(=O)[C@H](CCC(N)=O)NC(=O)[C@H](C)NC(=O)[C@H](CC(N)=O)NC(=O)[C@H](Cc2c[nH]c3ccccc23)NC(=O)[C@@H]2CCCN2C(=O)[C@H](CC(C)C)NC(=O)[C@H](CCCNC(=N)N)NC(=O)[C@@H](NC(C)=O)CSSC[C@@H](C(N)=O)NC(=O)[C@@H]2CCCN2C(=O)[C@H](CC(C)C)NC(=O)CNC1=O [Compound 74] (Ac-CRLPWNAQRIGLPC-NH2; disulfide 1-14) | > 50 | > 50 | – | 49.5 | –
CC[C@H](C)[C@@H]1NC(=O)[C@H](CCCNC(=N)N)NC(=O)[C@H](CCC(N)=O)NC(=O)[C@H](CC(C)C)NC(=O)[C@H](C)NC(=O)[C@H](Cc2c[nH]c3ccccc23)NC(=O)[C@@H]2CCCN2C(=O)[C@H](CC(C)C)NC(=O)[C@H](CCCNC(=N)N)NC(=O)[C@@H](NC(C)=O)CSSC[C@@H](C(N)=O)NC(=O)[C@@H]2CCCN2C(=O)[C@H](CC(C)C)NC(=O)CNC1=O [Compound 75] (Ac-CRLPWALQRIGLPC-NH2; disulfide 1-14) | > 50 | > 50 | – | 49.5 | –
CC[C@H](C)[C@@H]1NC(=O)[C@H](CCCNC(=N)N)NC(=O)[C@H](CCC(N)=O)NC(=O)[C@H](CC(C)C)NC(=O)[C@H](CC(N)=O)NC(=O)[C@H](C)NC(=O)[C@@H]2CCCN2C(=O)[C@H](CC(C)C)NC(=O)[C@H](CCCNC(=N)N)NC(=O)[C@@H](NC(C)=O)CSSC[C@@H](C(N)=O)NC(=O)[C@@H]2CCCN2C(=O)[C@H](CC(C)C)NC(=O)CNC1=O [Compound 76] (Ac-CRLPANLQRIGLPC-NH2; disulfide 1-14) | > 50 | > 50 | – | 49.5 | –
CC[C@H](C)[C@@H]1NC(=O)[C@H](CCCNC(=N)N)NC(=O)[C@H](CCC(N)=O)NC(=O)[C@H](CC(C)C)NC(=O)[C@H](CC(N)=O)NC(=O)[C@H](Cc2c[nH]c3ccccc23)NC(=O)[C@H](C)NC(=O)[C@H](CC(C)C)NC(=O)[C@H](CCCNC(=N)N)NC(=O)[C@@H](NC(C)=O)CSSC[C@@H](C(N)=O)NC(=O)[C@@H]2CCCN2C(=O)[C@H](CC(C)C)NC(=O)CNC1=O [Compound 77] (Ac-CRLAWNLQRIGLPC-NH2; disulfide 1-14) | > 50 | > 50 | – | 6.02 | –
CC[C@H](C)[C@@H]1NC(=O)[C@H](CCCNC(=N)N)NC(=O)[C@H](CCC(N)=O)NC(=O)[C@H](CC(C)C)NC(=O)[C@H](CC(N)=O)NC(=O)[C@H](Cc2c[nH]c3ccccc23)NC(=O)[C@@H]2CCCN2C(=O)[C@H](C)NC(=O)[C@H](CCCNC(=N)N)NC(=O)[C@@H](NC(C)=O)CSSC[C@@H](C(N)=O)NC(=O)[C@@H]2CCCN2C(=O)[C@H](CC(C)C)NC(=O)CNC1=O [Compound 78] (Ac-CRAPWNLQRIGLPC-NH2; disulfide 1-14) | > 50 | > 50 | – | 5.56 | –
CC[C@H](C)[C@@H]1NC(=O)[C@H](CCCNC(=N)N)NC(=O)[C@H](CCC(N)=O)NC(=O)[C@H](CC(C)C)NC(=O)[C@H](CC(N)=O)NC(=O)[C@H](Cc2c[nH]c3ccccc23)NC(=O)[C@@H]2CCCN2C(=O)[C@H](CC(C)C)NC(=O)[C@H](C)NC(=O)[C@@H](NC(C)=O)CSSC[C@@H](C(N)=O)NC(=O)[C@@H]2CCCN2C(=O)[C@H](CC(C)C)NC(=O)CNC1=O [Compound 79] (Ac-CALPWNLQRIGLPC-NH2; disulfide 1-14) | > 50 | > 50 | – | 1.53 | –
CC[C@H](C)[C@@H]1NC(=O)[C@H](CCCNC(=N)N)NC(=O)[C@H](CCC(N)=O)NC(=O)[C@H](CC(C)C)NC(=O)[C@H](CC(N)=O)NC(=O)[C@H](Cc2c[nH]c3ccccc23)NC(=O)[C@@H]2CCCN2C(=O)[C@H](CC(C)C)NC(=O)[C@H](CCCNC(=N)N)NC(=O)[C@@H](NC(C)=O)CSSC[C@@H](C(N)=O)NC(=O)CNC(=O)CNC(=O)CNC1=O [Compound 81] (Ac-CRLPWNLQRIGGGC-NH2; disulfide 1-14) | > 50 | > 50 | – | 28.8 | –
CC(=O)N[C@H]1CSSC[C@@H](C(N)=O)NC(=O)CCCCCCCCCNC(=O)[C@H](CCCNC(=N)N)NC(=O)[C@H](CCC(N)=O)NC(=O)[C@H](CC(C)C)NC(=O)[C@H](CC(N)=O)NC(=O)[C@H](Cc2c[nH]c3ccccc23)NC(=O)[C@@H]2CCCN2C(=O)[C@H](CC(C)C)NC(=O)[C@H](CCCNC(=N)N)NC1=O [Compound 84] (Ac-CRLPWNLQR[NH(CH2)9CO]C-NH2; disulfide 1-11) | > 50 | > 50 | – | > 50 | removes inhibition
CC(=O)N[C@H]1CSSC[C@@H](C(N)=O)NC(=O)CCCCCCCCNC(=O)[C@H](CCCNC(=N)N)NC(=O)[C@H](CCC(N)=O)NC(=O)[C@H](CC(C)C)NC(=O)[C@H](CC(N)=O)NC(=O)[C@H](Cc2c[nH]c3ccccc23)NC(=O)[C@@H]2CCCN2C(=O)[C@H](CC(C)C)NC(=O)[C@H](CCCNC(=N)N)NC1=O [Compound 85] (Ac-CRLPWNLQR[NH(CH2)8CO]C-NH2; disulfide 1-11) | > 50 | > 50 | – | > 50 | removes inhibition
CC(=O)N[C@H]1CSSC[C@@H](C(N)=O)NC(=O)CCCCCCCNC(=O)[C@H](CCCNC(=N)N)NC(=O)[C@H](CCC(N)=O)NC(=O)[C@H](CC(C)C)NC(=O)[C@H](CC(N)=O)NC(=O)[C@H](Cc2c[nH]c3ccccc23)NC(=O)[C@@H]2CCCN2C(=O)[C@H](CC(C)C)NC(=O)[C@H](CCCNC(=N)N)NC1=O [Compound 86] (Ac-CRLPWNLQR[Aoc]C-NH2; disulfide 1-11) | > 50 | > 50 | – | > 50 | removes inhibition
CC[C@H](C)[C@@H]1NC(=O)[C@H](CCCNC(=N)N)NC(=O)[C@H](CCCCN)NC(=O)[C@H](CC(C)C)NC(=O)[C@H](CC(N)=O)NC(=O)[C@H](Cc2c[nH]c3ccccc23)NC(=O)[C@H](CC(C)C)NC(=O)[C@@H](NC(=O)CNC(C)=O)CSSC[C@@H](C(=O)N[C@@H](Cc2c[nH]c3ccccc23)C(=O)N[C@@H](Cc2ccccc2)C(N)=O)NC(=O)[C@H](CCC(N)=O)NC(=O)[C@H](CO)NC(=O)CNC1=O [Compound 87] (Ac-GCLWNLKRIGSQCWF-NH2; disulfide 2-13 (inferred)) | > 50 | > 50 | – | 9.53 | –

From US11034725B2, “Compositions and methods for treating cardiovascular disease” (Genentech, Inc., priority 2016, dated 2021)
